Data published in patent publication US20030004175A1, “1,3-oxathiolane nucleoside analogues” (BioChem Pharma Inc., priority 1990, published 2003).
Converted amounts (≈) assume the structure as drawn.

What was measured:
[1] = system: HIV-1 strain RF; assay: Antiviral activity by inhibition of syncytium formation, C8166 cells infected with HIV-1 RF; assay type: cell-based; conditions: Human immunodeficiency virus 1, read-out: 50% Antiviral Activity
Procedure: (§1) Antiviral activity of the compounds of Example 2 were determined against three strains of HIV-1 and one strain of HIV-2 in the following cell lines.
(§2) C8166 cells, a human T-lymphoblastoid cell line, infected with HIV-1 strain RF.
(§3) Antiviral activities in C8166, JM, and CEM cells were determined by inhibition of syncytium formation (Tochikura et al Virology, 164, 542-546) and in MT-4 cells by inhibition of formazan conversion (Baba et al; (1987) Biochem Biophys Res Commun., 142, 128-134; Mossman (1983) J. Immun Meth; 65, 55-57). Antiviral activities were also determined by analysing the amount of HIV p24 antigen synthesised in the presence and absence of enantiomers.

[2] = system: JM cells; assay: Cytotoxicity, viable cell count by trypan blue exclusion, JM cells; assay type: cell-based; conditions: 5 days at 37° C.
Procedure: (§4) The cytotoxicites of the compounds of Example 2, the racemic compound (BCH-189; […] H9, JM, CEM, C8166 and U937. […] After incubation at 37° C. for 5 days, the viable cell count was determined by removing a sample of cell suspension and counting trypan blue excluding cells in a haemocytometer.

[3] = system: HIV-2 strain ROD; assay: Antiviral activity by inhibition of syncytium formation, CEM cells infected with HIV-2 ROD; assay type: cell-based; conditions: Human immunodeficiency virus 2, CCRF-CEM, read-out: 50% Antiviral Activity
Procedure: as §1
(§5) CEM cells, a human T-lymphoblastoid cell line, infected with HIV-1 strains RF and U455, or HIV-2 strain ROD.
as §3

[4] = system: C8166 cells; assay: Cytotoxicity, viable cell count by trypan blue exclusion, C8166 cells; assay type: cell-based, human; conditions: 5 days at 37° C.
Procedure: as §4

[5] = system: HIV-1 strain RF; assay: Inhibition of HIV p24 antigen synthesis, MT-4 cells, strain RF; assay type: cell-based; conditions: Human immunodeficiency virus 1, MT4, read-out: 50% Inhibition HIV p24 Synthesis
Procedure: as §1
(§6) MT-4 cells, a human T-cell leukaemia cell line, infected with HIV-1 strain RF.
as §3

[6] = system: CD4 cell lines; assay: Cytotoxicity (summary statement); assay type: cell-based
Procedure: Compounds for test were serially diluted from 100 μg/ml to 0.3 μg/ml (final concentrations) in 96 well microtitre plates. 3.6×10^4 cells were inoculated into each well of the plates including drug-free controls. After incubation at 37° C. for 5 days, the viable cell count was determined by removing a sample of cell suspension and counting trypan blue excluding cells in a haemocytometer.

[7] = system: CEM cells; assay: Cytotoxicity, viable cell count by trypan blue exclusion, CEM cells; assay type: cell-based, human; conditions: 5 days at 37° C.
Procedure: as §4

[8] = system: HIV-1 strain RF; assay: Antiviral activity by inhibition of formazan conversion, MT-4 cells infected with HIV-1 RF; assay type: cell-based; conditions: Human immunodeficiency virus 1, MT4, Formazan assay, read-out: 50% Antiviral Activity
Procedure: as §1, §6, §3

[9] = system: HIV-1 strain U455; assay: Antiviral activity by inhibition of syncytium formation, CEM cells infected with HIV-1 U455; assay type: cell-based; conditions: Human immunodeficiency virus 1, CCRF-CEM, read-out: 50% Antiviral Activity
Procedure: as §1, §5, §3

[10] = system: HIV-1 strain RF; assay: Antiviral activity by inhibition of syncytium formation, CEM cells infected with HIV-1 RF; assay type: cell-based; conditions: Human immunodeficiency virus 1, CCRF-CEM, read-out: 50% Antiviral Activity
Procedure: as §1, §5, §3

[11] = system: HIV-1 strain RF; assay: Inhibition of HIV p24 antigen synthesis, C8166 cells, strain RF; assay type: cell-based; conditions: Human immunodeficiency virus 1, read-out: 50% Inhibition HIV p24 Synthesis
Procedure: as §1, §2, §3

[12] = system: HIV-1 strain GB8; assay: Antiviral activity by inhibition of syncytium formation, JM cells infected with HIV-1 GB8; assay type: cell-based; conditions: Human immunodeficiency virus 1, read-out: 50% Antiviral Activity
Procedure: as §1
(§7) JM cells, a semi-mature T-cell line derived from a patient with lymphoblastic leukaemia, infected with HIV-1 strain GB8.
as §3

[13] = system: HIV-1 strain GB8; assay: Inhibition of HIV p24 antigen synthesis, JM cells, strain GB8; assay type: cell-based; conditions: Human immunodeficiency virus 1, read-out: 50% Inhibition HIV p24 Synthesis
Procedure: as §1, §7, §3

[14] = system: H9 cells; assay: Cytotoxicity, viable cell count by trypan blue exclusion, H9 cells; assay type: cell-based; conditions: 5 days at 37° C.
Procedure: as §4

[15] = system: U937 cells; assay: Cytotoxicity, viable cell count by trypan blue exclusion, U937 cells; assay type: cell-based; conditions: 5 days at 37° C.
Procedure: as §4

| Structure (SMILES) | IC50 [1] | 50% Cytoxicity [2] | IC50 [3] | 50% Cytoxicity [4] | IC50 [5] | cytotoxicity compared with the other enantiomer [6] | 50% Cytoxicity [7] | IC50 [8] | IC50 [9] | IC50 [10] | IC50 [11] | IC50 [12] | IC50 [13] | 50% Cytoxicity [14] | 50% Cytoxicity [15] |
| --- | --- | --- | --- | --- | --- | --- | --- | --- | --- | --- | --- | --- | --- | --- | --- |
| Nc1ccn([C@@H]2CS[C@H](CO)O2)c(=O)n1 [(−)-enantiomer, (−)-cis-4-Amino-1-(2-hydroxymethyl-1,3-oxathiolan-5-yl)-(1H)-pyrimidin-2-one] | 0.01 µg/mL (≈ 0.0436 µM) | 30 µg/mL | 0.055 µg/mL (≈ 0.24 µM) | >100 µg/mL | 0.0004 µg/mL (≈ 0.00174 µM) | considerably lower cytotoxicity | >100 µg/mL | 0.2 µg/mL (≈ 0.872 µM) | 0.008 µg/mL (≈ 0.0349 µM) | 0.04 µg/mL (≈ 0.174 µM) | 0.016 µg/mL (≈ 0.0698 µM) | 0.05 µg/mL (≈ 0.218 µM) | 0.016 µg/mL (≈ 0.0698 µM) | >100 µg/mL | >100 µg/mL |
| Nc1ccn([C@@H]2CS[C@H](CO)O2)c(=O)n1 (racemic) [BCH-189, (±)-(cis)-4-Amino-1-(2-hydroxymethyl-1,3-oxathiolan-5-yl)-(1H)-pyrimidin-2-one] |  | 3.5 µg/mL |  | 90 µg/mL |  |  | 3 µg/mL |  |  |  |  |  |  | 8 µg/mL | 15 µg/mL |
| Nc1ccn([C@H]2CS[C@@H](CO)O2)c(=O)n1 [(+)-enantiomer, (2S,cis)-4-amino-1-(2-hydroxymethyl-1,3-oxathiolan-5-yl)-(1H)-pyrimidin-2-one] | 0.05 µg/mL (≈ 0.218 µM) | 1.5 µg/mL | 0.045 µg/mL (≈ 0.196 µM) | 35 µg/mL | 0.0008 µg/mL (≈ 0.00349 µM) |  | 1 µg/mL | 0.28 µg/mL (≈ 1.22 µM) | 0.006 µg/mL (≈ 0.0262 µM) | 0.07 µg/mL (≈ 0.305 µM) | 0.021 µg/mL (≈ 0.0916 µM) | 0.03 µg/mL (≈ 0.131 µM) | 0.033 µg/mL (≈ 0.144 µM) | 2 µg/mL | 4 µg/mL |
